We go through four compounds from BindingDB's records for patent US20240140938 (Merck Sharp & Dohme, 2024).

The term IC50 denotes the concentration that gives 50% inhibition. A lower IC50 goes with greater potency in that assay.

The target of this test is T1, Diacylglycerol O-acyltransferase 2 (Homo sapiens, UniProt Q96PD7).
T1 sequence (Q96PD7 whole entry): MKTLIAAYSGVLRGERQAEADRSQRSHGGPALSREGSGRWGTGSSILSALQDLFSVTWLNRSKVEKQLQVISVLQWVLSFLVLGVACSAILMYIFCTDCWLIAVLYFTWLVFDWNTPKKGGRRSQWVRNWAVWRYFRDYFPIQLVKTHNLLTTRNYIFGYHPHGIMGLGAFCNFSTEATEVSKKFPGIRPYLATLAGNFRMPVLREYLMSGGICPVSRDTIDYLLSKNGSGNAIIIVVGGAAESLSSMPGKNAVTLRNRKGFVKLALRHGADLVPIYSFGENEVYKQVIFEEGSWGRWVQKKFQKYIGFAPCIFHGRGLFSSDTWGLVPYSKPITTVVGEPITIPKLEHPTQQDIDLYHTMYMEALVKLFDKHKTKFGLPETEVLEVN
Briefly: DGAT2 Enzymatic Activity Assay. The procedure: DGAT2 activity was determined by measuring the amount of enzymatic product 13C18-triolein (13C-1,2,3-Tri(cis-9-octadecenoyl)glycerol) using the membrane prep mentioned above. The assay was carried out in ABgene 384-well assay plates in a final volume of 25 μL at rt.
Turning to `CC(C)n1nc(-c2cccc(OC(F)F)c2)c2c1C[C@H](C(=O)NC1(C)CS(=O)(=O)C1)CC2` [US20240140938, Example 26], the IC50 stood at 0.319 µM. That is a sub-micromolar value. The figure for `CC(C)n1nc(-c2cccc(C(C)(F)F)c2)c2c1C[C@H](C(=O)NC1(C)CS(=O)(=O)C1)CC2` [US20240140938, Example 102] is 8.84 µM. The figure for `CN1CCC(n2nc(-c3cccc(OC(F)F)c3)c3c2C[C@H](C(=O)N[C@]2(C)CCS(=O)(=O)C2)CC3)CC1` [US20240140938, Example 72] is > 10 µM. Regarding `CC(C)n1nc(-c2cccc(-n3cccn3)c2)c2c1C[C@H](C(=O)NC1(C)CS(=O)(=O)C1)CC2` [US20240140938, Example 97], the 50% inhibitory concentration (IC50) is > 10 µM.
